From patent US9585862B2, “Patch containing rivastigmine” (priority 2011, dated 2017) come the findings set out here.

This data set in a line: Compatibility test of adhesives mixed with rivastigmine free base (appearance, miscibility, total impurity). Format: physicochemical. The text has this: In order to adopt a suitable adhesive for preparing a rivastigmine patch, each of various adhesives was mixed with rivastigmine free base to confirm the appearance, miscibility and compatibility thereof.
For a compatibility test, ten adhesives were used as a candidate material, considering the kind of a polymer and functional group present in the composition of each adhesive, the presence of a crosslinker and a solvent present in the composition. Details of the ten adhesives are shown in Table 2, wherein each product listed under the column “Product name” is an adhesive sold under the respective listed trademark.
Specifically, adhesives containing an acryl- or acrylate-vinylate-based polymer and having no functional group or a hydroxyl or carboxyl group were used. Also, the presence of a crosslinker in the adhesives was evaluated as an important factor to show a compatibility difference. The appearance and miscibility of each adhesive are shown in Table 3, wherein each “Durotak” listed under the column “Ingredient” is a different adhesive sold under the respective trademark.
For example, in the case that the adhesive sold under the trademark DUROTAK 87-202A was used, the color changed to yellow, while in the cases that the adhesives sold under the trademarks DUROTAK 87-2852, 87-2516 and 87-2052 were used, the color changed to brown. The adhesives undergoing a significant color change were commonly confirmed to have a crosslinker.

With `CCN(C)C(=O)Oc1cccc([C@H](C)N(C)C)c1` [Rivastigmine base, (S)-N-ethyl-3-[(1-dimethylamino)ethyl]-N-methyl-phenyl-carbamate], the “Miscibility 2 wks” value (active ingredient with adhesive, 2 wks) is recorded as “◯”. For the same compound, the “Miscibility Initial” value (active ingredient with adhesive, initial) is given as “◯”. Besides, the “Total impurity (% impurity) 2 wks” value (rivastigmine base alone or mixed with adhesive, 2 wks) was found to be 0.07%. Besides, under “rivastigmine base alone or mixed with adhesive, initial”, the “Total impurity (% impurity) Initial” value is given as 0.03%.
